Legend:
[1] = system: monocytes cocultured with autologous CD8+ T cells; assay: Autologous CD8+ T cell sensitization to peptide-pulsed monocytes (interferon gamma secretion); type: cell-based, human
Protocol: Monocyte-rich elutriation fractions from healthy HLA-A2.1 donors were either untreated or treated with ionophore A23187 750 ng/ml for 40 hours, then pulsed with either the M1 influenza-derived peptide or the MART1 melanoma-derived peptide (the M1 peptide is a “recall antigen” for all HLA-A2.1^pos individuals, whereas the MART1 peptide is usually a “recall antigen” only for HLA-A2.^pos patients with melanoma). Antigen-pulsed monocytes were cocultured with freshly prepared autologous CD8^+ T cells for 8-10 days; the T cells were then harvested and cocultured with peptide-pulsed HLA-A2.1 positive T2 stimulator cells which had been pulsed 2 hours with 1 μg/ml of either the MART1 peptide, the influenza M1 derived peptide, or an irrelevant HIV peptide to assess whether specific sensitization to FLU or MART1 peptides was attained.
After 40 hours, the cells were pulsed with a tumor derived HER2neu (369-377) peptide for two hours, harvested, then FACS analyzed or cocultured for 8-10 days with naive autologous CD8^+ T cells to determine whether rapid sensitization to the HER2neu peptide could be achieved.

[2] = system: human peripheral blood monocytes; assay: FACS analysis of cell surface markers on cultured peripheral blood monocytes; type: cell-based
[3] = system: adherence-enriched monocytes; assay: FACS analysis of monocytes enriched by Ficoll separation and adherence; type: cell-based, human; conditions: A23187 750 ng/ml, 20 hours
Protocol: Blood was drawn in heparinized syringes (approximately 80 cc), diluted 1:1 with normal saline, layered on Ficoll-Hypaque, and centrifuged for 20 minutes to remove neutrophils and red blood cells. The peripheral blood mononuclear cell (PBMC) containing interface were washed, counted, and added to 24 well plates, 2 cc culture medium per well, 2×10^7 cells per well.
After 60 minutes the non adherent cells were removed, leaving a half confluent surface of adherent cells in each well (i.e., monocyte enrichment by adherence) Wells were either untreated or treated with calcium ionophore A23 187 750 ng/ml, and harvested 20 hours later.

[4] = system: HL-60 cells; assay: FACS analysis of cell surface markers on HL-60 cells; type: cell-based, human; conditions: optimal doses, within 20 hours
[5] = system: HUVEC; assay: FACS analysis of umbilical vein endothelial cells; type: cell-based, human
Protocol: Endothelial cells were previously isolated from human umbilical vein (HUVEC), then cultured in IMEM with 20% fetal calf serum and rhEGF ([…]). The cells in this experiment had undergone four previous passages to confluence and were trypsinized and reseeded in T25 flasks. After four days culture to reachieve confluence individual flasks were treated with several concentrations of calcium ionophore (180, 375 and 750 ng/ml). Two days later, cells were harvested by trypsinization and analyzed.

[6] = system: monocytes; assay: Calcium-chelation luminescence spectrophotometry of intracellular calcium flux; type: cell-based, human; conditions: indol-loaded monocytes; calcium ionophore 180-750 ng/ml
Protocol: Calcium-chelation luminescence spectrophotometry was utilized to measure intracellular calcium fluxes in monocytes. Monoytes were incubated with 5 uM/ml indol, a calcium chelating agent which emits fluorescence at different wavelengths (405 or 480 nm) depending on whether or not it is bound to cycloplasmic calcium. Increased calcium mobilization causes relative shifts in emission from one wavelength to the other. After 30 minute incubation with indol, monocytes were washed, pulsed with a variety of agents such as calcium ionophore, virus, f-MET-LEU-PHE, or LPS. To measure calcium fluxes at subsequent time intervals, cells were stimulated with a 355 nm wavelength beam, and fluorescence emission measured at 405 and 480 nm.

[7] = system: HL-60 cells; assay: FACS analysis of cell surface markers on HL-60 cells; type: cell-based, human
Protocol: Calcium was removed from cultured cells by two methods.
The second method involved washing the cells extensively in calcium-free RPMI medium, and culturing them in the same calcium-free medium supplemented with serum that had been dialyzed against calcium-free phosphate-buffered saline.
The calmodulin kinase inhibitors KN-62 (20 uM) or KT-5926 (1 uM) was added to HL-60 cells in the presence of 188 ng/ml A23187. Twenty four hours later the level of CD80 was analyzed.
Thapsigargin was added to cultured human peripheral blood monocytes and HL-60 cells in concentrations ranging from 0 to 1000 nM. Cells were harvested 24 hours later and evaluated for the acquisition of ADC immunophenotypic characteristics by FACS analysis.
Cells were harvested after three days, irradiated (3000R), then FACS analyzed or cocultured in graded numbers with freshly prepared naive (CD45RO negative) T lymphocytes. Allosensitization was assessed by pulsing at day 4 with ^3H-TdR and harvesting 18 hours later.

[8] = system: bone marrow-derived CD34pos cells; assay: FACS and morphologic analysis of cultured bone marrow-derived CD34pos cells; type: cell-based, human
Protocol: Bone marrow-derived highly purified CD34^pos cells were cultured for six days in medium containing 20% fetal calf serum, rhSCF, rhGM-CSF, and rhTNF-alpha. […] Cells were centrifuged and replated in 24 well plates in fresh medium containing rhGM-CSF, and rhTNF-alpha but not rhSCF. In addition, individual wells were treated with varied doses of ionophore A23187. Wells were harvested 1, 2, and 6 days subsequently, subjected to FACS analysis or studied morphologically for DC characteristics utilizing polylysine-coated glass slides and Nomarski optics.

[9] = system: WEHI-3; assay: Costimulatory molecule expression on mouse myeloid leukemia line; type: cell-based; conditions: following calcium mobilization
Source text: Myeloid leukemia cell lines display marked upregulation of molecules linked to antigen-presentation and acquire increased T cell sensitizing capacity following calcium mobilization with either calcium ionophore or thapsigargin.

[10] = as E78, vs expression prior to culture
[11] = calcium-free RPMI and dialyzed serum
[12] = within 18 hours of treatment initiation

CNc1ccc2oc(C[C@H]3O[C@@]4(CC[C@H]3C)O[C@H]([C@H](C)C(=O)c3ccc[nH]3)[C@H](C)C[C@H]4C)nc2c1C(=O)O [A23187]
stimulation of autologous T cell response to recall antigen M1 influenza peptide, vs untreated monocytes ([1]; A23187 750 ng/ml, 40 hours, HLA-A2.1 donors): equally able
sensitization of autologous T cells to MART1 peptide ([1]; A23187 750 ng/ml, 40 hours, eight normal donors): in every instance
T cell sensitization to HER2neu (369-377) peptide ([1]; monocytes treated 40 hours, majority of patients): could not be achieved
optimal concentration for DC differentiation of monocytes ([2]; 10% FCS): 180 to 375 ng/mL
CD14 expression downregulated ([2]; 20 hours, 10% AB serum, amphotericin B omitted, low endotoxin, A23187 750 ng/ml or cytokines (rhIL4 1000 u/ml; +rhGM-CSF 100 ng/ml; +rhTNF-alpha 100 u/ml)): 90%
surface marker expression in purified monocyte and DC cultures ([2]; A23187 750 ng/ml, 40 hours): upregulation of B7.1, B7.2, ICAM-1., HLA-DR, HLA-ABC, CD40, and CD83
surface marker expression of purified (>98%) CD14pos monocytes vs prepurified fractions ([2]; A23187 750 ng/ml, 40 hours): downregulated CD14, and upregulated B7.1, B7.2, ICAM-1, HLA-DR, HLA-ABC, CD40 and CD83 equivalently
activation and dendritic cell phenotypic conversion of pooled monocyte plus DC fractions ([2]; added at the beginning of a 24-48 hr culture period): uniform activation and dendritic cell phenotypic conversion
B7.1 expression increase [2, 10]: 14 fold
B7.2 expression increase [2, 10]: 7.5 fold
CD83 expression increase [2, 10]: 8.7 fold
HLA-ABC expression increase [2, 10]: 3.0 fold
HLA-DQ expression increase [2, 10]: 3.4 fold
HLA-DR increase [2, 10]: 2.9 fold
suppression of ionophore-induced B7.1 upregulation [2, 11]: 100%
suppression of ionophore-induced CD14 downregulation [2, 11]: 53%
optimal concentration for DC differentiation of monocytes ([2]; media with 5% AB serum): 375 to 750 ng/mL
CD40 expression ([2]; more uniform by 40 hours of treatment): Modest upregulation of CD40
optimal concentration for DC differentiation of monocytes ([2]; serum free media): 45 to 90 ng/mL
morphology by electron microscopy ([2]; within 20-40 hours of treatment): markedly increased endoplasmic reticulum, lysosomal and Golgi content
B7.1 (CD80) expression [2, 12]: Variable levels of de novo expression of B7.1 (CD80)
B7.2 (CD86) expression [2, 12]: marked upregulation of B7.2 (CD86)
CD83 expression [2, 12]: de novo and essentially uniform expression
cell surface CD14 expression [2, 12]: marked downregulation of cell surface CD14
B7.1 and CD83 expression [3]: de novo B7.1 and CD83 expression
B7.2, HLA-DR and CD40 expression [3]: upregulated B72, HLA-DR, and CD40 expression
CD14 expression [3]: uniform CD14 downregulation
expression of CD83, ICAM-1, B7.1 and B7.2 [4]: uniform de novo expression of CD83, ICAM-1, B7.1, and B7.2
ICAM-1 and CD40 expression ([5]; 375 and 750 ng/ml, two days): upregulated ICAM-1 and CD40 expression
HLA-ABC expression ([5]; two days): unchanged
B7.1, B7.2, HLA-DR and CD83 expression ([5]; with or without ionophore treatment): failed to express detectable B7.1, B7.2, HLA-DR or CD83
intracellular calcium flux / mobilization [6]: marked sustained monocyte mobilization
costimulatory molecule expression ([7]; A23187 180 ng/ml, three days): marked upregulation of costimulatory molecules B7.1, B7.2, and ICAM-1
HLA-DR expression ([7]; agent alone): not induced
ablation of ionophore-induced upregulation of CD80 and CD86 [7, 11]: ~100%
increase in purity of cells with activated myeloid dendritic cell phenotype at final harvest [8]: approximately six
CD14 expression ([8]; 375-750 ng/ml, within 20 hours): marked CD14 downregulation
cells with marked upregulation of B7.1, B7.2, ICAM-1, CD83, CD40 and CD1a ([8]; 375-750 ng/ml, within 20 hours): > 85 % of cells
increase in yield of cells with activated myeloid dendritic cell phenotype vs wells without ionophore ([8]; absolute numbers of cells recovered): approximately three
optimal concentration for dendritic cell immunophenotype ([8]; within 20 hours of treatment): 375 to 750 ng/mL
morphology ([8]; within 40 hours of treatment): virtually all cells manifested dendritiform morphology
costimulatory molecule expression [9]: markedly increased costimulatory molecule expression

Source: patent US6358736B1, “Method for increasing the antigen presenting ability of leukemia cells” (The United States of America as represented by the …, priority 1995, dated 2002)
